Values quoted from earlier work, collected in US11672781B2, “Metaxalone formulations” (PRANA BIOSCIENCES INC, priority 2018, dated 2023).

Details: independent of pH across the physiological pH range found in the GI tract

Compound: Cc1cc(C)cc(OCC2CNC(=O)O2)c1 (stereo not shown) [metaxalone, 5-[(3,5-dimethylphenoxy)methyl]-2-oxazolidinone]
- Aqueous solubility: less than 50 ug/ml
